Paper PMC6352943, “Novel pyrazolo[3,4-d]pyrimidines: design, synthesis, anticancer activity, dual EGFR/ErbB2 receptor tyrosine kinases inhibitory activity, effects on cell cycle profile and caspase-3-mediated apoptosis” (Journal of Enzyme Inhibition and Medicinal Chemistry, 2019)

Experiments:
Assay in all cases: NCI 60 cell line single dose screen (SRB)
Type in all cases: cell-based
[1] = system: SN12C; conditions: Homo sapiens; SN12C (renal cancer), single dose 10^−5 M, 48 h; read-out: Growth inhibition percentage
Description: (§1) Anticancer activity screening of the newly synthesised compounds was measured in vitro utilising 60 different human tumour cell lines provided by US National Cancer Institute according to previously reported standard procedure[27–29] as follows: Cells are inoculated into 96-well microtitre plates in 100 ml. After cell inoculation, the microtitre plates are incubated at 37 °C, 5% CO2, 95% air and 100% relative humidity for 24 h prior to addition of experimental compounds. After 24 h, two plates of each cell line are fixed in situ with TCA, to represent a measurement of the cell population for each cell line at the time of drug addition (Tz). Experimental compounds are solubilised in dimethyl sulphoxide at 400-fold the desired final maximum test concentration and stored frozen prior to use. At the time of compound addition, an aliquot of frozen concentrate is thawed and diluted to twice the desired final maximum test concentration with complete medium containing […] gentamicin. Aliquots of […] of the compounds dilutions are added to the appropriate microtitre wells already containing 100 ml of medium, resulting in the required final compound concentration. Following compound addition, the plates are incubated for an additional 48 h at 37 °C, 5% CO2, 95% air, and 100% relative humidity. For adherent cells, the assay is terminated by the addition of cold trichloroacetic acid (TCA). Cells are fixed in situ by the gentle addition of 50 ml of cold 50% (w/v) TCA (final concentration, 10% TCA) and incubated for 60 min at 4 °C. The supernatant is discarded, and the plates are washed five times with tap water and air-dried. Sulphorhodamine B (SRB) solution (100 ml) at 0.4% (w/v) in 1% acetic acid is added to each well, and plates are incubated for 10 min at room temperature. After staining, unbound dye is removed by washing five times with 1% acetic acid and the plates are air-dried. Bound stain is subsequently solubilised with 10 mM trizma base, and the absorbance is read on an automated plate reader at a wavelength of 515 nm. For suspension cells, the methodology is the same except that the assay is terminated by fixing settled cells at the bottom of the wells by gently adding 50 ml of 80% TCA (final concentration, 16% TCA). Using the absorbance measurements [time zero, (Tz), control growth, (C), and test growth in the presence of compound (Ti)], the percentage growth is calculated for each compound. Percentage growth inhibition is calculated as: [(Ti – Tz)/(C – Tz)] x 100 for concentrations for which Ti >/=Tz. [(Ti – Tz)/Tz] x 100 for concentrations for which Ti < Tz.

[2] = system: OVCAR-4; conditions: Homo sapiens; OVCAR-4 (ovarian cancer), single dose 10^−5 M, 48 h; read-out: Growth inhibition percentage
Description: as §1

[3] = system: NCI-H322M; conditions: Homo sapiens; NCI-H322M (non-small cell lung cancer), single dose 10^−5 M, 48 h; read-out: Growth inhibition percentage
Description: as §1

[4] = system: MOLT-4; conditions: Homo sapiens; MOLT-4 (leukemia), single dose 10^−5 M, 48 h; read-out: Growth inhibition percentage
Description: as §1

[5] = system: SNB-19; conditions: Homo sapiens; SNB-19 (CNS cancer), single dose 10^−5 M, 48 h; read-out: Growth inhibition percentage
Description: as §1

[6] = system: K-562; conditions: Homo sapiens, K562; K-562 (leukemia), single dose 10^−5 M, 48 h; read-out: Growth inhibition percentage
Description: as §1

[7] = system: SNB-75; conditions: Homo sapiens; SNB-75 (CNS cancer), single dose 10^−5 M, 48 h; read-out: Growth inhibition percentage
Description: as §1

[8] = system: ACHN; conditions: Homo sapiens; ACHN (renal cancer), single dose 10^−5 M, 48 h; read-out: Growth inhibition percentage
Description: as §1

[9] = system: HCC-2998; conditions: Homo sapiens; HCC-2998 (colon cancer), single dose 10^−5 M, 48 h; read-out: Growth inhibition percentage
Description: as §1

[10] = system: NCI-H23; conditions: Homo sapiens; NCI-H23 (non-small cell lung cancer), single dose 10^−5 M, 48 h; read-out: Growth inhibition percentage
Description: as §1

[11] = system: SF-268; conditions: Homo sapiens; SF-268 (CNS cancer), single dose 10^−5 M, 48 h; read-out: Growth inhibition percentage
Description: as §1

[12] = system: BT-549; conditions: Homo sapiens; BT-549 (breast cancer), single dose 10^−5 M, 48 h; read-out: Growth inhibition percentage
Description: as §1

[13] = system: OVCAR-8; conditions: Homo sapiens; OVCAR-8 (ovarian cancer), single dose 10^−5 M, 48 h; read-out: Growth inhibition percentage
Description: as §1

[14] = system: CCRF-CEM; conditions: Homo sapiens; CCRF-CEM (leukemia), single dose 10^−5 M, 48 h; read-out: Growth inhibition percentage
Description: as §1

[15] = system: HCT-116; conditions: Homo sapiens; HCT-116 (colon cancer), single dose 10^−5 M, 48 h; read-out: Growth inhibition percentage
Description: as §1

[16] = system: NCI-H226; conditions: Homo sapiens; NCI-H226 (non-small cell lung cancer), single dose 10^−5 M, 48 h; read-out: Growth inhibition percentage
Description: as §1

[17] = system: RXF 393; conditions: Homo sapiens; RXF 393 (renal cancer), single dose 10^−5 M, 48 h; read-out: Growth inhibition percentage
Description: as §1

[18] = system: OVCAR-3; conditions: Homo sapiens; OVCAR-3 (ovarian cancer), single dose 10^−5 M, 48 h; read-out: Growth inhibition percentage
Description: as §1

[19] = system: LOX IMVI; conditions: Homo sapiens; LOX IMVI (melanoma), single dose 10^−5 M, 48 h; read-out: Growth inhibition percentage
Description: as §1

[20] = system: 786-0; conditions: Homo sapiens; 786-0 (renal cancer), single dose 10^−5 M, 48 h; read-out: Growth inhibition percentage
Description: as §1

[21] = system: SK-MEL-5; conditions: Homo sapiens; SK-MEL-5 (melanoma), single dose 10^−5 M, 48 h; read-out: Growth inhibition percentage
Description: as §1

Compound	inhibition at 10 µM [1] [%]	inhibition at 10 µM [2] [%]	inhibition at 10 µM [3] [%]	inhibition at 10 µM [4] [%]	inhibition at 10 µM [5] [%]	inhibition at 10 µM [6] [%]	inhibition at 10 µM [7] [%]	inhibition at 10 µM [8] [%]	inhibition at 10 µM [9] [%]	inhibition at 10 µM [10] [%]	inhibition at 10 µM [11] [%]	inhibition at 10 µM [12] [%]	inhibition at 10 µM [13] [%]	inhibition at 10 µM [14] [%]	inhibition at 10 µM [15] [%]	inhibition at 10 µM [16] [%]	inhibition at 10 µM [17] [%]	inhibition at 10 µM [18] [%]	inhibition at 10 µM [19] [%]	inhibition at 10 µM [20] [%]	further results
Cc1nn(-c2ccc(F)cc2)c2ncnc(N3CCN(c4ccc(Cl)cc4)CC3)c12 [Compound 8c, 4–(4-(4-Chlorophenyl)piperazin-1-yl)-1–(4-fluorophenyl)-3-methyl-1H-pyrazolo[3,4-d]pyrimidine]	13.3	-1.9	3.9	7.19	-4.77	11.4	0.02	2.13	3.74	20.7	4.51	-4.23	3.66	-8.74	1.69	7.59	-16.5	1.21	4.93	-2.04	inhibition at 10 µM [21]: 5.22%
COc1ccc(N2CCN(c3ncnc4c3c(C)nn4-c3ccc(F)cc3)CC2)cc1 [Compound 8d, 1–(4-Fluorophenyl)-4–(4-(4-methoxyphenyl)piperazin-1-yl)-3-methyl-1H-pyrazolo[3,4-d]pyrimidine]	6.31	-1.77	1.5	3.49	2.02	-4	5.93	-0.34	3.59	9.95	-2.9	2.13	1.33	0.86	7.42	5.22	-9.45	-8.47	0.28	-4.57	inhibition at 10 µM [21]: -1.01%
Cc1nn(-c2ccc(F)cc2)c2ncnc(NN)c12 [Compound 9, 1–(4-Fluorophenyl)-4-hydrazinyl-3-methyl-1H-pyrazolo[3,4-d]-pyrimidine]	8.3	17.8	23.9	22.7	11.3	-3.06	-0.56	2.07	5.1	19.1	25.6	-10.8	1.29	30.9	3.99	15.5	5.47	32.2	13.3	-3.72	inhibition at 10 µM [21]: 3.85%
COc1cc(C=NNc2ncnc3c2c(C)nn3-c2ccc(F)cc2)ccc1O [Compound 10b, 1–(4-Fluorophenyl)-4–(2-(4-hydroxy-3-methoxybenzylidene)-hydrazinyl)-3-methyl-1H-pyrazolo[3,4-d]pyrimidine]	14.9	9.65	14.4	38.3	6.67	24.2	17.5	7.34	0.27	9.39	29	9.63	3.64	38	-4.51	-2.3	4.9	24.2	19	11.3	inhibition at 10 µM [21]: 43.4%
COc1cc(C=NNc2ncnc3c2c(C)nn3-c2ccc(F)cc2)cc(OC)c1OC [Compound 10c, 1–(4-Fluorophenyl)-3-methyl-4–(2-(3,4,5-trimethoxybenzylidene)-hydrazinyl)-1H-pyrazolo[3,4-d]pyrimidine]	4.99	-8.66	13.5	7.03	-4.87	-3.02	19.5	4.01	2.74	14.2	6.35	-1.06	-1.23	4.81	3.15	5.82	3.39	-0.3	9.33	1.85	inhibition at 10 µM [21]: 15.3%
